Data reported in ChEMBL document CHEMBL1201862, “PubChem BioAssay data set” (2004).
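Interpolation was linear, between the two tested concentrations surrounding the appropriate level; five concentrations were tested over 48 hours in 96-well plates. At the GI50, growth is halved.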 Activity calls are given as the source filed them. Rule as the data show it: active = GI50 up to about 1.1 µM and inactive = higher.

Assays:
Assay in all cases: NCI-60 cell line screen, 48 h
786-0 = tested on: 786-0
A498 = tested on: A498
A549 = tested on: A549
ACHN = tested on: ACHN
BT-549 = tested on: BT-549
CAKI-1 = tested on: CAKI-1
CCRF-CEM = tested on: CCRF-CEM
COLO 205 = tested on: COLO 205
DLD-1 = tested on: DLD-1
DMS-114 = tested on: DMS-114
DMS-273 = tested on: DMS-273
DU-145 = tested on: DU-145
EKVX = tested on: EKVX
HCC 2998 = tested on: HCC 2998
HCT-116 = tested on: HCT-116
HCT-15 = tested on: HCT-15
HL-60 = tested on: HL-60
HOP-18 = tested on: HOP-18
HOP-62 = tested on: HOP-62
HOP-92 = tested on: HOP-92
HT-29 = tested on: HT-29
Hs-578T = tested on: Hs-578T
IGROV-1 = tested on: IGROV-1
K562 = tested on: K562
KM-20L2 = tested on: KM-20L2
KM12 = tested on: KM12
LOX IMVI = tested on: LOX IMVI
LXFL 529 = tested on: LXFL 529
M14 = tested on: M14
M19-MEL = tested on: M19-MEL
MCF7 = tested on: MCF7
MDA-MB-231 = tested on: MDA-MB-231
MDA-MB-435 = tested on: MDA-MB-435
MDA-N = tested on: MDA-N
MOLT-4 = tested on: MOLT-4
Malme-3M = tested on: Malme-3M
NCI-H226 = tested on: NCI-H226
NCI-H23 = tested on: NCI-H23
NCI-H460 = tested on: NCI-H460
NCI-H522 = tested on: NCI-H522
NCI/ADR-RES = tested on: NCI/ADR-RES
OVCAR-3 = tested on: OVCAR-3
OVCAR-4 = tested on: OVCAR-4
OVCAR-5 = tested on: OVCAR-5
OVCAR-8 = tested on: OVCAR-8
PC-3 = tested on: PC-3
RPMI-8226 = tested on: RPMI-8226
RXF 393 = tested on: RXF 393
SF-268 = tested on: SF-268
SF-295 = tested on: SF-295
SF-539 = tested on: SF-539
SK-MEL-28 = tested on: SK-MEL-28
SK-MEL-2 = tested on: SK-MEL-2
SK-MEL-5 = tested on: SK-MEL-5
SK-OV-3 = tested on: SK-OV-3
SN12C = tested on: SN12C
SNB-19 = tested on: SNB-19
SNB-75 = tested on: SNB-75
SNB-78 = tested on: SNB-78
SR = tested on: SR
SW-620 = tested on: SW-620
T47D = tested on: T47D
TK-10 = tested on: TK-10
U-251 = tested on: U-251
UACC-257 = tested on: UACC-257
UACC-62 = tested on: UACC-62
UO-31 = tested on: UO-31

COc1cc2c(cc1OC)C(SC)C(=O)N(Cc1cccc(OC)c1OC)CC2 (stereo not given)
GI50 (786-0): 3.85 µM (inactive)
GI50 (A498): 2.03 µM (inactive)
GI50 (A549): 1.73 µM (inactive)
GI50 (ACHN): 5.04 µM (inactive)
GI50 (BT-549): 0.755 µM (active)
GI50 (CAKI-1): 13.6 µM (inactive)
GI50 (CCRF-CEM): 3.61 µM (inactive)
GI50 (COLO 205): 2.74 µM (inactive)
GI50 (DLD-1): 2.01 µM (inactive)
GI50 (DMS-114): 0.621 µM (active)
GI50 (DMS-273): 0.553 µM (active)
GI50 (DU-145): 2.51 µM (inactive)
GI50 (EKVX): 4.7 µM (inactive)
GI50 (HCC 2998): 2.46 µM (inactive)
GI50 (HCT-116): 1.92 µM (inactive)
GI50 (HCT-15): 0.718 µM
GI50 (HL-60): 0.411 µM (active)
GI50 (HOP-18): 1.49 µM (inactive)
GI50 (HOP-62): 2.75 µM (inactive)
GI50 (HOP-92): 0.861 µM (active)
GI50 (HT-29): 1.03 µM (active)
GI50 (Hs-578T): 2.66 µM (inactive)
GI50 (IGROV-1): 2.77 µM (inactive)
GI50 (K562): 0.501 µM (active)
GI50 (KM-20L2): 1.19 µM (inactive)
GI50 (KM12): 2.65 µM (inactive)
GI50 (LOX IMVI): 2.1 µM (inactive)
GI50 (LXFL 529): 2.84 µM (inactive)
GI50 (M14): 2.28 µM (inactive)
GI50 (M19-MEL): 1.2 µM (inactive)
GI50 (MCF7): 0.746 µM (active)
GI50 (MDA-MB-231): 5.48 µM (inactive)
GI50 (MDA-MB-435): 0.353 µM (active)
GI50 (MDA-N): 0.297 µM (active)
GI50 (MOLT-4): 2.33 µM (inactive)
GI50 (Malme-3M): 3.15 µM (inactive)
GI50 (NCI-H226): 3.21 µM (inactive)
GI50 (NCI-H23): 2.25 µM (inactive)
GI50 (NCI-H460): 1.09 µM (active)
GI50 (NCI-H522): 0.64 µM (active)
GI50 (NCI/ADR-RES): 2.73 µM (inactive)
GI50 (OVCAR-3): 0.798 µM (active)
GI50 (OVCAR-4): 17.5 µM (inactive)
GI50 (OVCAR-5): 14.9 µM (inactive)
GI50 (OVCAR-8): 4.29 µM (inactive)
GI50 (PC-3): 1.28 µM (inactive)
GI50 (RPMI-8226): 3.61 µM (inactive)
GI50 (RXF 393): 1.79 µM (inactive)
GI50 (SF-268): 4.67 µM (inactive)
GI50 (SF-295): 0.63 µM (active)
GI50 (SF-539): 1.22 µM (inactive)
GI50 (SK-MEL-28): 1.99 µM (inactive)
GI50 (SK-MEL-2): 1.26 µM (inactive)
GI50 (SK-MEL-5): 0.703 µM (active)
GI50 (SK-OV-3): 2.54 µM (inactive)
GI50 (SN12C): 5.61 µM (inactive)
GI50 (SNB-19): 8.75 µM (inactive)
GI50 (SNB-75): 3.3 µM (inactive)
GI50 (SNB-78): 0.359 µM (active)
GI50 (SR): 0.912 µM (active)
GI50 (SW-620): 1.49 µM (inactive)
GI50 (T47D): 4.13 µM (inactive)
GI50 (TK-10): 5.62 µM (inactive)
GI50 (U-251): 2.02 µM (inactive)
GI50 (UACC-257): 2.95 µM (inactive)
GI50 (UACC-62): 0.731 µM (active)
GI50 (UO-31): 6.47 µM (inactive)

COc1ccc2c(c1)[n+]([O-])c(-c1ccc(C)cc1)c(N)[n+]2[O-]
GI50 (786-0): 70.8 µM (inactive)
GI50 (A498): > 100 µM (inactive)
GI50 (A549): 55.3 µM (inactive)
GI50 (ACHN): 57.4 µM (inactive)
GI50 (CAKI-1): 49.2 µM (inactive)
GI50 (COLO 205): 20.2 µM (inactive)
GI50 (DLD-1): > 100 µM (inactive)
GI50 (DMS-114): 24.9 µM (inactive)
GI50 (DMS-273): 37.7 µM (inactive)
GI50 (EKVX): 67.8 µM (inactive)
GI50 (HCT-116): > 100 µM (inactive)
GI50 (HCT-15): 45.8 µM
GI50 (HL-60): 43.9 µM (inactive)
GI50 (HOP-18): > 100 µM (inactive)
GI50 (HOP-62): > 100 µM (inactive)
GI50 (HOP-92): > 100 µM (inactive)
GI50 (HT-29): 52.5 µM (inactive)
GI50 (IGROV-1): 43.3 µM (inactive)
GI50 (K562): 67.1 µM (inactive)
GI50 (KM-20L2): 36.1 µM (inactive)
GI50 (KM12): 44.8 µM (inactive)
GI50 (LXFL 529): 59.6 µM (inactive)
GI50 (M14): 52.5 µM (inactive)
GI50 (M19-MEL): 51.1 µM (inactive)
GI50 (Malme-3M): 76.2 µM (inactive)
GI50 (NCI-H226): > 100 µM (inactive)
GI50 (NCI-H23): 20.9 µM (inactive)
GI50 (NCI-H460): 38.3 µM (inactive)
GI50 (NCI-H522): 16.3 µM (inactive)
GI50 (OVCAR-3): 31 µM (inactive)
GI50 (OVCAR-4): 88.7 µM (inactive)
GI50 (OVCAR-5): 66.5 µM (inactive)
GI50 (OVCAR-8): 66.2 µM (inactive)
GI50 (RPMI-8226): 75.5 µM (inactive)
GI50 (SF-295): > 100 µM (inactive)
GI50 (SF-539): 86.1 µM (inactive)
GI50 (SK-MEL-28): 89.5 µM (inactive)
GI50 (SK-MEL-2): 40.6 µM (inactive)
GI50 (SK-MEL-5): 35.8 µM (inactive)
GI50 (SK-OV-3): > 100 µM (inactive)
GI50 (SN12C): > 100 µM (inactive)
GI50 (SNB-19): > 100 µM (inactive)
GI50 (SNB-75): 45.1 µM (inactive)
GI50 (SNB-78): 70.5 µM (inactive)
GI50 (SR): > 100 µM (inactive)
GI50 (SW-620): 38.4 µM (inactive)
GI50 (U-251): 54.7 µM (inactive)
GI50 (UACC-257): 23.6 µM (inactive)
GI50 (UO-31): 55.1 µM (inactive)

Cc1cccc(C)c1NC(=O)C1C(=O)N(c2c(C)cccc2C)C(=O)/C1=N\NC(N)=S (stereo not given)
GI50 (786-0): > 100 µM (inactive)
GI50 (A498): > 100 µM (inactive)
GI50 (A549): > 100 µM (inactive)
GI50 (ACHN): > 100 µM (inactive)
GI50 (CCRF-CEM): > 100 µM (inactive)
GI50 (DLD-1): > 100 µM (inactive)
GI50 (DMS-114): 36.1 µM (inactive)
GI50 (EKVX): > 100 µM (inactive)
GI50 (HCC 2998): > 100 µM (inactive)
GI50 (HCT-116): 58.2 µM (inactive)
GI50 (HCT-15): > 100 µM
GI50 (HL-60): > 100 µM (inactive)
GI50 (HOP-18): 17.3 µM (inactive)
GI50 (HOP-62): > 100 µM (inactive)
GI50 (HOP-92): > 100 µM (inactive)
GI50 (HT-29): > 100 µM (inactive)
GI50 (IGROV-1): > 100 µM (inactive)
GI50 (K562): 92.9 µM (inactive)
GI50 (KM-20L2): 82.8 µM (inactive)
GI50 (KM12): > 100 µM (inactive)
GI50 (LXFL 529): > 100 µM (inactive)
GI50 (M14): > 100 µM (inactive)
GI50 (M19-MEL): > 100 µM (inactive)
GI50 (MOLT-4): 75.3 µM (inactive)
GI50 (Malme-3M): > 100 µM (inactive)
GI50 (NCI-H23): > 100 µM (inactive)
GI50 (NCI-H460): > 100 µM (inactive)
GI50 (NCI-H522): > 100 µM (inactive)
GI50 (OVCAR-3): > 100 µM (inactive)
GI50 (OVCAR-4): > 100 µM (inactive)
GI50 (OVCAR-5): > 100 µM (inactive)
GI50 (OVCAR-8): > 100 µM (inactive)
GI50 (RPMI-8226): 89.5 µM (inactive)
GI50 (RXF 393): 10.4 µM (inactive)
GI50 (SF-268): > 100 µM (inactive)
GI50 (SF-295): > 100 µM (inactive)
GI50 (SF-539): > 100 µM (inactive)
GI50 (SK-MEL-28): > 100 µM (inactive)
GI50 (SK-MEL-2): > 100 µM (inactive)
GI50 (SK-MEL-5): > 100 µM (inactive)
GI50 (SN12C): > 100 µM (inactive)
GI50 (SNB-19): > 100 µM (inactive)
GI50 (SNB-78): > 100 µM (inactive)
GI50 (SW-620): > 100 µM (inactive)
GI50 (TK-10): > 100 µM (inactive)
GI50 (U-251): > 100 µM (inactive)
GI50 (UACC-257): > 100 µM (inactive)
GI50 (UACC-62): > 100 µM (inactive)
GI50 (UO-31): > 100 µM (inactive)
